Assay results reported in the supplement of paper PMC10307832.

Legend:
Assay in all cases: relative viability (nuclei count vs DMSO), 5 days (fraction); higher = more cells survive
[1] = test system: A-427
In short: (§1)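 Nuclei were stained with Hoechst during a one-step fixation (final 0.05% Triton X-100, 1% formaldehyde, 1 ug/ml Hoechst) carried out 5 days after dosing, then counted on 4× images. The cells, lung cancer lines in 1536-well plates, had been dosed by pin tool the day after seeding with one drug alone or a fixed anchor-drug dose plus five library-drug doses (not always all listed) in √10 steps. Relative viability is the nuclei count in treated wells divided by that in vehicle wells, and each value is the median of duplicate plates.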

[2] = test system: NCI-H522
In short: as §1

[3] = test system: NCI-H2228
In short: as §1

[4] = test system: NCI-H322M
In short: as §1

[5] = test system: SK-MES-1
In short: as §1

[6] = test system: NCI-H2170
In short: as §1

[7] = test system: SW 1573
In short: as §1

[8] = test system: LK-2
In short: as §1

[9] = test system: SW 900
In short: as §1

[10] = test system: HOP-62
In short: as §1

[11] = test system: NCI-H1993
In short: as §1

[12] = test system: PC-3 [JPC-3]
In short: as §1

[13] = test system: NCI-H2009
In short: as §1

[14] = test system: NCI-H3122
In short: as §1

[15] = test system: LXF-289
In short: as §1

[16] = test system: EMC-BAC-2
In short: as §1

[17] = test system: HARA
In short: as §1

[18] = test system: NCI-H1792
In short: as §1

[19] = test system: NCI-H1944
In short: as §1

[20] = test system: NCI-H596
In short: as §1

## CCN(CC)CCCCNc1ncc2cc(-c3cc(OC)cc(OC)c3)c(NC(=O)NC(C)(C)C)nc2n1 + Nc1nc2[nH]cc(CCc3ccc(C(=O)N[C@@H](CCC(=O)O)C(=O)O)cc3)c2c(=O)[nH]1 [Pemetrexed] (partner 0.2 µM)
[1]; first compound 0.01 µM
  relative viability: 1.01
[1]; first compound 0.03162 µM
  relative viability: 1
[1]; first compound 0.1 µM
  relative viability: 1.06
[1]; first compound 0.3162 µM
  relative viability: 1.23
[1]; first compound 1 µM
  relative viability: 0.965
[2]; first compound 0.01 µM
  relative viability: 0.989
[2]; first compound 0.03162 µM
  relative viability: 0.918
[2]; first compound 0.1 µM
  relative viability: 1.09
[2]; first compound 0.3162 µM
  relative viability: 0.888
[2]; first compound 1 µM
  relative viability: 0.921
[3]; first compound 0.01 µM
  relative viability: 0.318
[3]; first compound 0.03162 µM
  relative viability: 0.344
[3]; first compound 0.1 µM
  relative viability: 0.418
[3]; first compound 0.3162 µM
  relative viability: 0.326
[3]; first compound 1 µM
  relative viability: 0.335
[4]; first compound 0.01 µM
  relative viability: 0.612
[4]; first compound 0.03162 µM
  relative viability: 0.591
[4]; first compound 0.1 µM
  relative viability: 0.735
[4]; first compound 0.3162 µM
  relative viability: 0.642
[4]; first compound 1 µM
  relative viability: 0.567
[5]; first compound 0.01 µM
  relative viability: 1.11
[5]; first compound 0.03162 µM
  relative viability: 0.94
[5]; first compound 0.1 µM
  relative viability: 1.05
[5]; first compound 0.3162 µM
  relative viability: 1.07
[5]; first compound 1 µM
  relative viability: 0.98
[6]; first compound 0.01 µM
  relative viability: 0.251
[6]; first compound 0.03162 µM
  relative viability: 0.293
[6]; first compound 0.1 µM
  relative viability: 0.262
[6]; first compound 0.3162 µM
  relative viability: 0.238
[6]; first compound 1 µM
  relative viability: 0.275
[7]; first compound 0.01 µM
  relative viability: 0.858
[7]; first compound 0.03162 µM
  relative viability: 0.843
[7]; first compound 0.1 µM
  relative viability: 1.08
[7]; first compound 0.3162 µM
  relative viability: 0.944
[7]; first compound 1 µM
  relative viability: 0.832
[8]; first compound 0.01 µM
  relative viability: 0.267
[8]; first compound 0.03162 µM
  relative viability: 0.272
[8]; first compound 0.1 µM
  relative viability: 0.273
[8]; first compound 0.3162 µM
  relative viability: 0.149
[8]; first compound 1 µM
  relative viability: 0.145
[9]; first compound 0.01 µM
  relative viability: 0.529
[9]; first compound 0.03162 µM
  relative viability: 0.461
[9]; first compound 0.1 µM
  relative viability: 0.517
[9]; first compound 0.3162 µM
  relative viability: 0.509
[9]; first compound 1 µM
  relative viability: 0.309
[10]; first compound 0.01 µM
  relative viability: 0.33
[10]; first compound 0.03162 µM
  relative viability: 0.275
[10]; first compound 0.1 µM
  relative viability: 0.362
[10]; first compound 0.3162 µM
  relative viability: 0.314
[10]; first compound 1 µM
  relative viability: 0.351
[11]; first compound 0.01 µM
  relative viability: 0.57
[11]; first compound 0.03162 µM
  relative viability: 0.583
[11]; first compound 0.1 µM
  relative viability: 0.652
[11]; first compound 0.3162 µM
  relative viability: 0.689
[11]; first compound 1 µM
  relative viability: 0.707
[12]; first compound 0.03162 µM
  relative viability: 1
[12]; first compound 0.1 µM
  relative viability: 1.15
[12]; first compound 0.3162 µM
  relative viability: 1.7
[12]; first compound 1 µM
  relative viability: 0.883
[13]; first compound 0.01 µM
  relative viability: 1.12
[13]; first compound 0.03162 µM
  relative viability: 1.03
[13]; first compound 0.1 µM
  relative viability: 1.08
[13]; first compound 0.3162 µM
  relative viability: 1.18
[13]; first compound 1 µM
  relative viability: 0.988
[14]; first compound 0.01 µM
  relative viability: 0.208
[14]; first compound 0.03162 µM
  relative viability: 0.186
[14]; first compound 0.1 µM
  relative viability: 0.208
[14]; first compound 0.3162 µM
  relative viability: 0.203
[14]; first compound 1 µM
  relative viability: 0.223
[15]; first compound 0.01 µM
  relative viability: 0.923
[15]; first compound 0.03162 µM
  relative viability: 1.02
[15]; first compound 0.1 µM
  relative viability: 0.907
[15]; first compound 0.3162 µM
  relative viability: 0.884
[15]; first compound 1 µM
  relative viability: 0.849
[16]; first compound 0.03162 µM
  relative viability: 0.46
[16]; first compound 0.1 µM
  relative viability: 0.491
[16]; first compound 0.3162 µM
  relative viability: 0.479
[16]; first compound 1 µM
  relative viability: 0.489
[17]; first compound 0.01 µM
  relative viability: 0.202
[17]; first compound 0.03162 µM
  relative viability: 0.234
[17]; first compound 0.1 µM
  relative viability: 0.279
[17]; first compound 0.3162 µM
  relative viability: 0.22
[17]; first compound 1 µM
  relative viability: 0.281
[18]; first compound 0.01 µM
  relative viability: 1.17
[18]; first compound 0.03162 µM
  relative viability: 0.932
[18]; first compound 0.1 µM
  relative viability: 0.634
[18]; first compound 0.3162 µM
  relative viability: 0.945
[18]; first compound 1 µM
  relative viability: 0.296
[19]; first compound 0.01 µM
  relative viability: 0.603
[19]; first compound 0.03162 µM
  relative viability: 0.804
[19]; first compound 0.1 µM
  relative viability: 0.705
[19]; first compound 0.3162 µM
  relative viability: 0.631
[19]; first compound 1 µM
  relative viability: 0.605
[20]; first compound 0.01 µM
  relative viability: 0.453
[20]; first compound 0.03162 µM
  relative viability: 0.496
[20]; first compound 0.1 µM
  relative viability: 0.488
[20]; first compound 0.3162 µM
  relative viability: 0.584
[20]; first compound 1 µM
  relative viability: 0.443
